# Measured values published in patent publication US6310095A, “Inhibitors of protein isoprenyl transferases” (University of Pittsburgh, priority 1998, dated 2001).
# Where a name gives a salt, the structure may show the parent alone.
# Target: T1, protein farnesyltransferase (Rattus norvegicus, UniProt Q02293+Q04631)
# T1 construct: Rat brain protein farnesyltransferase activity is measured; from tissue; host or cells: rat brain; purified according to Reiss et al., Cell 62:81-88 (1990), steps one through three
# Assay: in vitro inhibition of protein farnesyltransferase (scintillation proximity assay, biotin-K Ras B fragment)
# Type: biochemical
# Details: at 1 × 10^-6 M
# Summary of the method: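 Rat brain enzyme, purified through three steps, in a scintillation proximity assay kit with biotin-K Ras B fragment substrate at 0.1 mM final. Value is % inhibition of farnesylation.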
row,SMILES,% inhibition of farnesyltransferase
1,CSCC[C@H](NC(=O)c1ccc(COCc2ccc(-c3ccc(F)cc3)o2)cc1-c1cccc2ccccc12)C(=O)[O-].[Li+] [Example 868],89%
2,CSCC[C@H](NC(=O)c1ccc(OCCCc2ccccc2)cc1-c1ccccc1C)C(=O)[O-].[Li+] [Example 879],95%
3,CSCC[C@H](NC(=O)c1ccc(COCC(CC2CCCCC2)CC2CCCCC2)cc1-c1ccccc1C)C(=O)O [Example 889],95%
4,CSCC[C@H](NC(=O)c1cc(Cc2ccccc2)c(COCCCc2ccccc2)cc1-c1ccccc1C)C(=O)O [Example 925],87%

# Next, values leading:
row,% inhibition of farnesyltransferase,SMILES
1,62%,CSCC[C@H](NC(=O)c1ccc(CN2CCN(C(=O)OC(C)(C)C)CC2)cc1-c1ccccc1C)C(=O)O [Example 866]
2,71%,CSCC[C@H](NC(=O)c1ccc(CN2CCN(c3ccccc3)CC2)cc1-c1ccccc1C)C(=O)O [Example 867]
3,78%,CSCC[C@H](NC(=O)c1cc(Cc2ccccc2)c(COCc2ccccc2)cc1-c1ccccc1C)C(=O)O [Example 923]
4,77%,CSCC[C@H](NC(=O)c1cc(Cc2ccccc2)c(COCc2ccco2)cc1-c1ccccc1C)C(=O)O [Example 924]

# Same assay, conditions: at 1 × 10^-6 M; read-out: % inhibition of farnesyltransferase
row,SMILES,inhibition at 1 µM
1,"CSCC[C@H](NC(=O)c1ccc(CN(C(=O)OC(C)(C)C)C(CC2CCCCC2)CC2CCCCC2)cc1-c1ccccc1C)C(=O)O [Example 886, N-[4-N-t-Butyloxycarbonyl-N-(1,3-dicyclohexylpropan-2-yl)aminomethyl-2-(2-methylphenyl)-benzoyl]methionine lithium salt]",35%
2,CSCC[C@H](NC(=O)c1ccc(CN(CC(C)C)C(CC2CCCCC2)CC2CCCCC2)cc1-c1ccccc1C)C(=O)O [Example 908],88%
3,"CSCC[C@H](NC(=O)c1ccc(CN(C(=O)c2ccccc2)C(CC2CCCCC2)CC2CCCCC2)cc1-c1ccccc1C)C(=O)O [Example 910, N-[4-(N-benzoyl-N-(1,3-Dicyclohexylpropan-2-yl)aminomethyl)-2-(2-methylphenyl)-benzoyl]methionine]",42%
4,"CSCC[C@H](NC(=O)c1ccc(CN(C(CC2CCCCC2)CC2CCCCC2)S(=O)(=O)c2ccccc2)cc1-c1ccccc1C)C(=O)O [Example 911, N-[4-(N-Benzenesulfoyl-N-(1,3-Dicyclohexylpropan-2-yl)aminomethyl)-2-(2-methylphenyl)-benzoyl]methionine]",65%

# Other lines, results leading:
row,inhibition at 1 µM,SMILES
1,95%,"CSCC[C@H](NC(=O)c1ccc(CN(Cc2cncs2)S(C)(=O)=O)cc1-c1ccccc1C)C(=O)O [Example 878, N-[4-N-(methanesulfonyl-N-thiazol-2-ylmethyl)aniinomethyl-2-(2-methylphenyl)-benzoyl]methionine]"
2,85%,"CSCC[C@H](NC(=O)c1ccc(NC(=O)OCc2cncs2)cc1-c1ccccc1C)C(=O)O [Example 902, N-[4-N-(thiazol-5-ylmethoxycarbonyl)amino-2-(2-methylphenylbenzoyl]methioninelithium salt]"

# Same assay, conditions: at 1 × 10^-7 M
row,SMILES,% inhibition of farnesyltransferase
1,CSCC[C@H](NC(=O)c1ccc(COCc2ccc(-c3ccc(F)cc3)o2)cc1-c1ccc(F)cc1Cl)C(=O)[O-].[Li+] [Example 869],92%
2,CSCC[C@H](NC(=O)c1ccc(COCc2cnco2)cc1-c1ccccc1C)C(=O)[O-].[Li+] [Example 891],94%
3,CSCC[C@H](NC(=O)c1ccc(COCc2cnc(-c3cccc(Cl)c3)o2)cc1-c1ccccc1C)C(=O)[O-].[Li+] [Example 893],87%
4,CSCC[C@H](NC(=O)c1ccc(COCc2cnc(-c3ccc(Cl)cc3)o2)cc1-c1ccccc1C)C(=O)[O-].[Li+] [Example 894],89%
5,CSCC[C@H](NC(=O)c1ccc(COCc2cnc(C(C)(C)C)s2)cc1-c1ccccc1C)C(=O)[O-].[Li+] [Example 895],92%
6,COc1ncc(COCc2ccc(C(=O)N[C@@H](CCSC)C(=O)O)c(-c3ccccc3C)c2)s1 [Example 896],96%
7,CSCC[C@H](NC(=O)c1ccc(COCc2cnc(-c3ccc(F)cc3)s2)cc1-c1ccccc1C)C(=O)O [Example 900],95%

# Same assay, conditions: at 1 × 10^-7 M; read-out: % inhibition of farnesyltransferase
row,inhibition at 0.1 µM,SMILES
1,84%,"CSCC[C@H](NC(=O)c1ccc(CNc2ccc(Oc3ccccc3)cc2)cc1-c1ccccc1C)C(=O)O [Example 864, N-[4-N-(4-phenoxyphenyl)aminomethyl-2-(2-methylphenyl)benzoyl]methionine]"
2,88%,"CCSC[C@H](CC(C)C)N(C)Cc1ccc(C(=O)N[C@@H](CCSC)C(=O)O)c(-c2ccccc2C)c1 [Example 906, N-[4-(N-(1-ethylthio-4-methylpentan-2-yl)-N-methylaminomethyl)-2-(2-methylphenyl)benzoyl]-methionine]"
3,85%,"CCCCN(CCCC)C(=O)CNCc1ccc(C(=O)N[C@@H](CCSC)C(=O)O)c(-c2ccccc2C)c1 [Example 912, N-[4-(N-(N,N-dibutylacetamido)aminomethyl)-2-(2-methylphenyl)benzoyl]methionine]"
4,89%,"CCCCN(CCCC)C(=O)CN(C)Cc1ccc(C(=O)N[C@@H](CCSC)C(=O)O)c(-c2ccccc2C)c1 [Example 913, N-[4-(N-(N,N-dibutylacetamido)-N-methylaminomethyl)-2-(2-methylphenyl)benzoyl]methionine]"
5,91%,"CSCC[C@H](NC(=O)c1ccc(CNCC(=O)N(Cc2ccccc2)Cc2ccccc2)cc1-c1ccccc1C)C(=O)O [Example 914, N-[4-(N-(N,N-dibenzylacetamido)aminomethyl)-2-(2-methylphenyl)benzoyl]methionine]"
6,78%,"CCCCN(CCCC)Cc1ccc(C(=O)N[C@@H](CCSC)C(=O)O)c(-c2ccccc2C)c1 [Example 917, N-[4-(N,N-Dibutylaminomethyl)-2-(2-methylphenyl)benzoyl]methionine]"

# Same assay, conditions: at 1 × 10^-8 M
row,SMILES,% inhibition of farnesyltransferase
1,CSCC[C@H](NC(=O)c1ccc(CO[C@H](CSC)CC2CCCCC2)cc1-c1ccccc1C)C(=O)O [Example 882],79%
2,CSCC[C@H](NC(=O)c1ccc(CO[C@H](CSC(C)(C)C)CC2CCCCC2)cc1-c1ccccc1C)C(=O)O [Example 883],91%
3,CSCC[C@H](NC(=O)c1ccc(CO[C@H](CSc2ccccc2)CC2CCCCC2)cc1-c1ccccc1C)C(=O)O [Example 884],94%
4,CSCC[C@H](NC(=O)c1ccc(CO[C@@H](CC2CCCCC2)CN2CCOCC2)cc1-c1ccccc1C)C(=O)O [Example 885],95%
5,CSCC[C@H](NC(=O)c1ccc(CON=C(Cc2ccccc2)Cc2ccccc2)cc1-c1ccccc1C)C(=O)O [Example 888],86%
6,CSCC[C@H](NC(=O)c1ccc(COCc2cnc(-c3ccccc3Cl)o2)cc1-c1ccccc1C)C(=O)[O-].[Li+] [Example 892],59%
7,CSCC[C@H](NC(=O)c1ccc(COCc2cnc(-c3ccccc3Cl)s2)cc1-c1ccccc1C)C(=O)[O-].[Li+] [Example 897],76%
8,CSCC[C@H](NC(=O)c1ccc(COCc2cnc(-c3cccc(F)c3)s2)cc1-c1ccccc1C)C(=O)[O-].[Li+] [Example 898],82%
9,CSCC[C@H](NC(=O)c1ccc(COCc2cnc(-c3cccc(Cl)c3)s2)cc1-c1ccccc1C)C(=O)[O-].[Li+] [Example 899],88%
10,CSCC[C@H](NC(=O)c1ccc(COCc2cnc(-c3ccc(Cl)cc3)s2)cc1-c1ccccc1C)C(=O)[O-].[Li+] [Example 901],84%
11,CSCC[C@H](NC(=O)c1ccc(COCc2cc(-c3ccc(Cl)cc3)co2)cc1-c1ccccc1C)C(=O)[O-].[Li+] [Example 904],85%

# Same assay, conditions: at 1 × 10^-8 M; read-out: % inhibition of farnesyltransferase
row,SMILES,inhibition at 0.01 µM
1,"CSCC[C@H](NC(=O)c1ccc(CN(C)C(CC2CCCCC2)CC2CCCCC2)cc1-c1ccccc1C)C(=O)O [Example 907, N-[4-(N-(1,3-Dicyclohexylpropan-2-yl)-N-methylaminomethyl)-2-(2-methylphenyl)-benzoyl]methionine]",79%
2,"CSCC[C@H](NC(=O)c1ccc(CN(C(C)=O)C(CC2CCCCC2)CC2CCCCC2)cc1-c1ccccc1C)C(=O)O [Example 909, N-[4-(N-acetyl-N-(1,3-Dicyclohexylpropan-2-yl)aminomethyl)-2-(2-methylphenyl)-benzoyl]methionine]",79%
3,CCCCS(=O)(=O)N(CCC1CCCCC1)Cc1ccc(C(=O)N[C@@H](CCSC)C(=O)O)c(-c2ccccc2C)c1 [Example 916],96%

# Further lines, results first:
row,inhibition at 0.01 µM,SMILES
1,68%,CSCC[C@H](NC(=O)c1ccc(CN(Cc2cncs2)S(=O)(=O)c2ccc(C)cc2)cc1-c1ccccc1C)C(=O)O [Example 877]
2,95%,"CSCC[C@H](NC(=O)c1ccc(CN(CCC2CCCCC2)C2CC2)cc1-c1ccccc1C)C(=O)O [Example 880, N-[4-(N-2-Cyclohexylethyl-N-cyclopropylaminomethyl)-2-(2-methylphenyl)benzoyl]methionine]"
3,69%,CSCC[C@H](NC(=O)c1ccc(CN(Cc2cncs2)C2CCSCC2)cc1-c1ccccc1C)C(=O)O [Example 881]
4,92%,"CSCC[C@H](NC(=O)c1ccc(CN[C@@H](CC2CCCCC2)C(=O)N2CCCCC2)cc1-c1ccccc1C)C(=O)O [Example 887, N-[4-N-(3-Cyclohexyl-1-oxo-1-piperidin-1-ylpropan-2-yl)aminomethyl-2-(2-methylphenyl)benzoyl]-methionine lithium salt]"
5,86%,"CCSC[C@H](CC(C)C)NCc1ccc(C(=O)N[C@@H](CCSC)C(=O)O)c(-c2ccccc2C)c1 [Example 905, N-[4-(N-(1-ethylthio-4-methylpentan-2-yl)aminomethyl)-2-(2-methylphenyl)benzoyl]-methionine]"
